Laboratory results as given in patent publication US7009045B2 (priority 2000, dated 2006).

Tests used:
Assay type in all cases: cell-based
[1] = test system: Candida famata regulatory mutants able to overproduce riboflavin; test: Sensitivity to Co^+2 ions, solid Burkholder medium (Table 16); set-up: key: +++: strong growth; ++: weak growth; +: very weak growth; —: absence of growth
Experimental: (§1) The sensitivity of the regulatory mutants of the yeast C. famata which overproduce riboflavin in iron rich medium probably due to defects in genes regulating repression (repression mutants), to different ions of heavy metals was studied. For this, the analyzed strains were streaked on the YPD plates and then were replica-plated on Burkholder synthetic medium containing leucine (40 μg/ml). The C.famata mutants L20105-40-1-11, L20105-40-1-17, L20105-3-2-1, L20105-3-2-8 and L20105-3-2-12 (all contained leu2 marker) accumulated 80–100 μg riboflavin/ml. The mutants #75, 4-48, 2-5 produced much higher amounts of riboflavin (200–250 μg/ml) but were prototrophs for leucine synthesis. Strain #75 was characterized by retarded growth comparing with other mutants. The strains VKM Y-9 (wild type) and L20105 (leu2) were used as the control strains.

[2] = test system: Candida famata regulatory mutants able to overproduce riboflavin; test: Sensitivity to copper ions, solid Burkholder medium (Table 12); set-up: key: +++: strong growth; ++: weak growth; —: absence of growth
Experimental: as §1
Mutants overproducing lower amounts of riboflavin appeared to be more sensitive to CuSO4 (0.15 mM) than that of the strains producing higher amounts of riboflavin (inhibitory concentration 0.5 mM) (Table 12).

[3] = test system: Pichia guilliermondii wild type and regulatory mutants (rib81); test: Sensitivity after electroporation to K2Cr2O7, Burkholder medium with 0.3 M sucrose (Table 22); set-up: key: +++: strong growth; ++: weak growth; +: very weak growth; —: absence of growth; conditions: K2Cr2O7 400 μM
[4] = test system: Candida famata wild type and regulatory mutants able to overproduce riboflavin on iron-rich medium; test: Sensitivity after electroporation to K2Cr2O7, Burkholder medium with 1% ethanol (Table 17); conditions: K2Cr2O7 15–50 μM
Source text: The strategy for the cloning of the genes regulating derepression of riboflavin in C. famata was developed using regulatory mutants 2-5 and 4-48 which accumulate elevated amounts of riboflavin in the medium with high iron content. The method for positive selection of the transformants which, after transformation with C. famata gene library, would lose the ability to overproduce riboflavin in iron rich medium, was developed. For this, the difference in sensitivity to Cr^+6 ions (as K2Cr2O7) between C. famata wild strain VKM Y-9 and overproducers of riboflavin 2-5 and 4-48 after their electroporation with the C. famata gene library constructed on pCfARS1614, was studied.
Toxicity of Cr^+6 was studied on agar plates containing different carbon sources (sucrose, glycerol, ethanol). Before the electroporated cells were plated on ethanol and glycerol medium, the cells were washed 3 times with 10 fold volumes of 0.6 M KCl and the suspension volumes were adjusted with 0.6 M KCl to 100 μl. On each plate containing glycerol (0.5%) or ethanol (1%), 0.6 M KCl and different concentrations (10–200 uM) of K2Cr2O7, in a 30–60 μl suspension were spread. Where sucrose was used as a carbon source, this sugar was used at a 0.3M concentration, using it as both as a carbon source and osmotic stabilizer.

[Cl-].[Cl-].[Co+2] [CoCl2]
+: growth ([1]; #2-5, Co^+2 3.75 μg/ml) | growth ([1]; #75, Co^+2 2.5 μg/ml) | growth ([1]; L20105-3-2-1, Co^+2 3.75 μg/ml) | growth ([1]; L20105-3-2-8, Co^+2 3.75 μg/ml) | growth ([1]; L20105-3-2-8, Co^+2 5.0 μg/ml) | growth ([1]; L20105-3-2-9, Co^+2 3.75 μg/ml) | growth ([1]; L20105-3-2-12, Co^+2 3.75 μg/ml) | growth ([1]; L20105-3-2-12, Co^+2 5.0 μg/ml) | growth ([1]; L20105-40-1-11, Co^+2 3.75 μg/ml)

O=S(=O)([O-])[O-].[Cu+2] [CuSO4]
++: growth ([2]; #2-5, Cu^+2 0.3 mM) | growth ([2]; #2-5, Cu^+2 0.35 mM) | growth ([2]; #2-5, Cu^+2 4 mM) | growth ([2]; #4-48, Cu^+2 0.3 mM) | growth ([2]; #4-48, Cu^+2 0.35 mM) | growth ([2]; #4-48, Cu^+2 4 mM) | growth ([2]; #75, Cu^+2 0.3 mM) | growth ([2]; #75, Cu^+2 0.35 mM) | growth ([2]; #75, Cu^+2 4 mM) | growth ([2]; L20105 (leu2), Cu^+2 0.45 mM) | growth ([2]; L20105 (leu2), Cu^+2 0.5 mM) | growth ([2]; L20105 (leu2), Cu^+2 0.55 mM) | growth ([2]; L20105-3-2-8, Cu^+2 0.05 mM) | growth ([2]; L20105-3-2-12, Cu^+2 0.05 mM)
+++: growth ([2]; #2-5, Cu^+2 0.05 mM) | growth ([2]; #2-5, Cu^+2 0.1 mM) | growth ([2]; #2-5, Cu^+2 0.15 mM) | growth ([2]; #2-5, Cu^+2 0.2 mM) | growth ([2]; #2-5, Cu^+2 0.25 mM) | growth ([2]; #4-48, Cu^+2 0.05 mM) | growth ([2]; #4-48, Cu^+2 0.1 mM) | growth ([2]; #4-48, Cu^+2 0.15 mM) | growth ([2]; #4-48, Cu^+2 0.2 mM) | growth ([2]; #4-48, Cu^+2 0.25 mM) | growth ([2]; #75, Cu^+2 0.05 mM) | growth ([2]; #75, Cu^+2 0.1 mM) | growth ([2]; #75, Cu^+2 0.15 mM) | growth ([2]; #75, Cu^+2 0.2 mM) | growth ([2]; #75, Cu^+2 0.25 mM)
—: growth ([2]; #2-5, Cu^+2 0.5 mM) | growth ([2]; #2-5, Cu^+2 0.55 mM) | growth ([2]; #2-5, Cu^+2 0.6 mM) | growth ([2]; #2-5, Cu^+2 0.65 mM) | growth ([2]; #2-5, Cu^+2 0.7 mM) | growth ([2]; #2-5, Cu^+2 0.75 mM) | growth ([2]; #2-5, Cu^+2 8 mM) | growth ([2]; #4-48, Cu^+2 0.5 mM) | growth ([2]; #4-48, Cu^+2 0.55 mM) | growth ([2]; #4-48, Cu^+2 0.6 mM) | growth ([2]; #4-48, Cu^+2 0.65 mM) | growth ([2]; #4-48, Cu^+2 0.7 mM) | growth ([2]; #4-48, Cu^+2 0.75 mM) | growth ([2]; #4-48, Cu^+2 8 mM) | growth ([2]; #75, Cu^+2 0.5 mM) | growth ([2]; #75, Cu^+2 0.55 mM) | growth ([2]; #75, Cu^+2 0.6 mM) | growth ([2]; #75, Cu^+2 0.65 mM) | growth ([2]; #75, Cu^+2 0.7 mM) | growth ([2]; #75, Cu^+2 0.75 mM) | growth ([2]; #75, Cu^+2 8 mM) | growth ([2]; L20105-3-2-4, Cu^+2 0.15 mM) | growth ([2]; L20105-3-2-4, Cu^+2 0.2 mM) | growth ([2]; L20105-3-2-4, Cu^+2 0.25 mM) | growth ([2]; L20105-3-2-4, Cu^+2 0.35 mM) | growth ([2]; L20105-3-2-4, Cu^+2 0.45 mM) | growth ([2]; L20105-3-2-4, Cu^+2 0.5 mM) | growth ([2]; L20105-3-2-4, Cu^+2 0.55 mM) | growth ([2]; L20105-3-2-4, Cu^+2 0.6 mM) | growth ([2]; L20105-3-2-4, Cu^+2 0.65 mM) | growth ([2]; L20105-3-2-4, Cu^+2 0.7 mM) | growth ([2]; L20105-3-2-4, Cu^+2 0.75 mM) | growth ([2]; L20105-3-2-4, Cu^+2 4 mM) | growth ([2]; L20105-3-2-8, Cu^+2 0.15 mM) | growth ([2]; L20105-3-2-8, Cu^+2 0.2 mM) | growth ([2]; L20105-3-2-8, Cu^+2 0.25 mM) | growth ([2]; L20105-3-2-8, Cu^+2 0.3 mM) | growth ([2]; L20105-3-2-8, Cu^+2 0.35 mM) | growth ([2]; L20105-3-2-8, Cu^+2 0.45 mM) | growth ([2]; L20105-3-2-8, Cu^+2 0.5 mM) | growth ([2]; L20105-3-2-8, Cu^+2 0.55 mM) | growth ([2]; L20105-3-2-8, Cu^+2 0.6 mM) | growth ([2]; L20105-3-2-8, Cu^+2 0.65 mM) | growth ([2]; L20105-3-2-8, Cu^+2 0.7 mM) | growth ([2]; L20105-3-2-8, Cu^+2 0.75 mM) | growth ([2]; L20105-3-2-8, Cu^+2 4 mM) | growth ([2]; L20105-3-2-8, Cu^+2 8 mM) | growth ([2]; L20105-3-2-12, Cu^+2 0.15 mM) | growth ([2]; L20105-3-2-12, Cu^+2 0.2 mM) | growth ([2]; L20105-3-2-12, Cu^+2 0.25 mM) | growth ([2]; L20105-3-2-12, Cu^+2 0.3 mM) | growth ([2]; L20105-3-2-12, Cu^+2 0.35 mM) | growth ([2]; L20105-3-2-12, Cu^+2 0.45 mM) | growth ([2]; L20105-3-2-12, Cu^+2 0.5 mM) | growth ([2]; L20105-3-2-12, Cu^+2 0.55 mM) | growth ([2]; L20105-3-2-12, Cu^+2 0.6 mM) | growth ([2]; L20105-3-2-12, Cu^+2 0.65 mM) | growth ([2]; L20105-3-2-12, Cu^+2 0.7 mM) | growth ([2]; L20105-3-2-12, Cu^+2 0.75 mM) | growth ([2]; L20105-3-2-12, Cu^+2 4 mM) | growth ([2]; L20105-3-2-12, Cu^+2 8 mM)

[K+].[K+].[O]=[Cr](=[O])([O-])[O][Cr](=[O])(=[O])[O-] [K2Cr2O7]
almost uninhibited: growth of the wild-type strain [4]
+: growth ([3]; #9-20 (leu2)) | growth ([3]; ATCC9058)
